Source: patent publication US20250114353A1, “Combination Treatment Regimens - SMARCA2 Degrader With Gemcitabine” (priority 2023, published 2025)

Tested on: NCI-H838 tumors
Assay: NCI-H838 tumor bearing mouse model (SMARCA4-deficient lung cancer xenograft), tumor growth inhibition
Format: in vivo
Settings: NOD/SCID female mice, NCI-H838-#5 s.c. xenograft, versus vehicle
Protocol: NOD/SCID female mice were inoculated subcutaneously with NCI-H838-#5 cells (5×10^6) into the right flank in PBS 0.1 ml mixed with Matrigel.
As used herein, tumor growth inhibition is calculated as follows: Mean % Inhibition=(mean(C)−mean(T))/mean(C)*100%, wherein C is the tumor volume in the control arm, and T is the tumor volume in the treatment arm.
The NCI-H838-#5 tumor cells are maintained in vitro with RPMI1640 medium supplemented with 10% fetal bovine serum at 37° C. in an atmosphere of 5% CO2 in air. The cells in exponential growth phase are harvested and quantitated by cell counter before tumor inoculation. NOD-SCID female mice are inoculated subcutaneously in the right front flank region with NCI-H838-#5 tumor cells (5×10^6) in 0.1 ml of PBS mixed with Matrigel (1:1) for tumor development. The randomization is performed when the mean tumor size reaches approximately 100-150 mm^3.
For the NCI-H838 CDX model, mice are inoculated subcutaneously with the NCI-H838 tumor cells (5×10^6).

In the case of Nc1ccn([C@@H]2O[C@H](CO)[C@@H](O)C2(F)F)c(=O)n1 [gemcitabine, 4-amino-1-((2R,4R,5R)-3,3-difluoro-4-hydroxy-5-(hydroxymethyl)tetrahydrofuran-2-yl)pyrimidin-2(1H)-one], the “tumor growth inhibition (TGI)” value (single agent gemcitabine 100 mg/kg i.v. BIW) is reported as “significant tumor growth inhibition”.

Cc1ncsc1-c1ccc([C@H](C)NC(=O)[C@@H]2C[C@@H](O)CN2C(=O)[C@@H](c2cc(O[C@@H](C)CN3CC[C@@H](N4CCN5c6cc(-c7ccccc7O)nnc6NC[C@H]5C4)C3)no2)C(C)C)cc1 [Formula (I)] was tested, and the “tumor growth inhibition (TGI)” value (single agent Formula (I) 100 mg/kg s.c. Q3D) was “significantly inhibits the growth of NCI-H838 tumors”.
